Data on three molecules can be found in patent US8426437B2, “Pyrroloquinoline derivatives and their use as protein kinases inhibitors” (Pierre Fabre Medicament, priority 2005, dated 2013).

The term IC50 denotes the midpoint of a concentration-inhibition curve. By inhibition is commonly meant the relative decrease from the control value, in per cent. For orientation: % inhibition means the share of the control response that was lost under treatment.

The target in test [1] is T1, PIM-1 (Homo sapiens, UniProt P11309).
T1 construct: purchased Upstate 14-573
T1 sequence (P11309 whole entry): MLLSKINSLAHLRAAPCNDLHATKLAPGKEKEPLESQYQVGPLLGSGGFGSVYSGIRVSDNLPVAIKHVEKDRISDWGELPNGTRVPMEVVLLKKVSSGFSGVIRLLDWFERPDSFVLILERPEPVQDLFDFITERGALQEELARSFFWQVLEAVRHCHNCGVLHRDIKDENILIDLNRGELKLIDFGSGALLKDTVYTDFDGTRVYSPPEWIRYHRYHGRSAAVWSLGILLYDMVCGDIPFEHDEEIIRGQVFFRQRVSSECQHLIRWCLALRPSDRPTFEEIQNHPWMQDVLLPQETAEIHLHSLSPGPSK
Put plainly: Inhibition of kinase PIM-1 (Kinase-Glo). The format is biochemical. The note with it: PIM-1 0.625 μg/ml, 10 μM ATP, forty minutes at 30° C. The gist of the method: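 PIM-1 (0.625 μg/ml) in MOPS/NaOH pH 7 with Mg acetate was run with 70 μM S6 kinase/Rsk2 peptide and 10 μM ATP, with compound at 10 nM–30 μM final.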
For orientation: Kinase-Glo reads ATP consumption through a luciferase reaction.

For test [2], the target named is T2, PIM-1 (h) (Homo sapiens, UniProt P11309).
T2 construct: purchased Upstate
T2 sequence (P11309 whole entry): as above
Put plainly: Upstate kinase panel: PIM-1. The format is biochemical. Conditions: compound 20 μM, 10 μM ATP, read-out: % inhibition at 20 μMol. As to the method: (§1) These kinases are produced by Upstate and screened according to the respective protocols indicated by the supplier (http://www.upstate.com/features/kp_protocols.asp). Examples 1, 12, 166 and 238 were tested at a concentration of 20 μM, 10 μM, 1 μM and 1 μM respectively in the presence of 10 μM of ATP for examples 1 and 12 and at the concentrations of ATP shown in parentheses for examples 166 and 238. The results shown in Table VII correspond to percentage inhibition of the kinase tested in the presence of the compound, relative to a control effected without the compound.

Test [3] concerns the target T3, RET (h) (Homo sapiens, UniProt P07949).
T3 construct: purchased Upstate
Put plainly: Upstate kinase panel: RET. The format is biochemical. The note with it: compound 20 μM, 10 μM ATP, read-out: % inhibition at 20 μMol. The protocol: as §1

Test [4] has as its target ALK (Homo sapiens, UniProt Q9UM73). Put plainly: Inhibition of kinase ALK (PLCγ1-GST substrate, anti-phosphotyrosine ELISA). The format is biochemical. Conditions: ALK 180 ng/ml, 250 μM ATP, 30 minutes at 30° C. The protocol: Incubation is carried out for 30 minutes at 30° C. with agitation.
The signal is read in luminescent mode using a luminometer.

The target in test [5] is T4, TrkA (Homo sapiens, UniProt P04629).
T4 construct: purchased Upstate 14-571
T4 sequence (P04629 33-796): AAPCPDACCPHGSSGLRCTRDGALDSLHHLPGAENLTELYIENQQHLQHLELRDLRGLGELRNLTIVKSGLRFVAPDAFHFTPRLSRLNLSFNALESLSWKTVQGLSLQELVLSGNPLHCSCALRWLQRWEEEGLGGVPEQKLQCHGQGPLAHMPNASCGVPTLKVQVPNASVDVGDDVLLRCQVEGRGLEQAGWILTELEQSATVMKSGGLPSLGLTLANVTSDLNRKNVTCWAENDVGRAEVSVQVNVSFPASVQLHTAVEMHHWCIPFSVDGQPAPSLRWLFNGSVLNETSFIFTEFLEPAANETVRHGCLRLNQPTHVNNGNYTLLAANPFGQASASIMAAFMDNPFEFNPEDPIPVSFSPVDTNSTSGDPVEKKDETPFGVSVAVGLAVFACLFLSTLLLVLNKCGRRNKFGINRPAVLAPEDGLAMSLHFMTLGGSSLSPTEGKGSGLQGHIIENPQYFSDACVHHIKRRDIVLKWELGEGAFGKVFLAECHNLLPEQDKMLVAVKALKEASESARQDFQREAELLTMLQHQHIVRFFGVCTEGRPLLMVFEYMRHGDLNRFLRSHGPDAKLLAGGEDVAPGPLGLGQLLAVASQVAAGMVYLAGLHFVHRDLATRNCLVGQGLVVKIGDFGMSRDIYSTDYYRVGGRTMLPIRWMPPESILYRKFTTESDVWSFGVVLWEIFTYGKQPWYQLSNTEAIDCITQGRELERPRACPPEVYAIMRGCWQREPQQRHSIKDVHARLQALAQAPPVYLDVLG
Put plainly: Inhibition of kinase TrkA (Kinase-Glo). The format is biochemical. The note with it: TrkA 4 μg/ml, 30 μM ATP, two hours at 30° C. The gist of the method:
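TrkA (4 μg/ml) was incubated with 1 mg/ml poly-EY and 30 μM ATP in MOPS pH 7 buffer with Mg acetate, DTT and vanadate, compounds at 10 nM–30 μM final, for 2 h at 30 °C. Remaining ATP was quantified by Kinase-Glo luminescence.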

Test [6] deals with MLCK (h). Put plainly: Upstate kinase panel: MLCK. Type of test: biochemical, human. The note with it: compound 1 μM, ATP (10). The protocol: as §1
The subject of test [7] is MDA-453. Put plainly: WST test, inhibition of proliferation of MDA-453. The format is cell-based. Conditions: 96 h; line MDA-453, tissue of origin Breast; four days of incubation, WST-1. As to the method:
(§2) The inhibition of the proliferation of cell lines by certain compounds of the invention was tested. […] In the example, the lines used were derived from cancers of the uterus, central nervous system, colon, stomach, head and neck, lung, breast, pancreas, and kidney, as well as from lymphoma, myeloma, pleura, or from melanoma.
(§3) The WST test for measuring cell proliferation and viability (Roche Applied Science) is based on cleavage of a tetrazolium salt by the mitochondrial dehydrogenases in viable cells.
(§4) After four days of incubation of the compounds with the cell line, 14 μl of WST-1 reagent is added to each well and the plates are incubated for four hours at 37° in humid atmosphere at 5% CO2. The level of formazan formed is then determined by spectrophotometry at 450 nm whereas a reference is measured at 650 nm. A control with untreated cells is represented by six wells per plate and the group of treated cells is produced in triplicate for each of the concentrations measured.
(§5) The compounds are tested at five concentrations between 10 nM and 100 μM and two cytotoxic agents are used as controls: adriamycin and 5-fluorouracil.
(In general: Formazan colour is commonly taken as a measure of viable cells.)

The subject of test [8] is SKUT1B. Put plainly: WST test, inhibition of proliferation of SKUT1B. Type of test: cell-based. Conditions: Homo sapiens, 96 h; line SKUT1B, tissue of origin Uterus; four days of incubation, WST-1. As to the method:
as §2, §3, §4, §5

Test [9] concerns 536L. Put plainly: WST test, inhibition of proliferation of 536L. Conditions: 96 h; line 536L, tissue of origin Head/neck; four days of incubation, WST-1. The format is cell-based. The protocol:
as §2, §3, §4, §5

Test [10] relates to HT144. Put plainly: WST test, inhibition of proliferation of HT144. The note with it: Homo sapiens, HT-144, 96 h; line HT144, tissue of origin Melanoma; four days of incubation, WST-1. The format is cell-based. The protocol:
as §2, §3, §4, §5

In test [11] the test system is A498. Put plainly: WST test, inhibition of proliferation of A498. The format is cell-based. Conditions: Homo sapiens, 96 h; line A498, tissue of origin Kidney; four days of incubation, WST-1. As to the method:
as §2, §3, §4, §5

Chain of ALK (Q9UM73 19-1620, species assumed): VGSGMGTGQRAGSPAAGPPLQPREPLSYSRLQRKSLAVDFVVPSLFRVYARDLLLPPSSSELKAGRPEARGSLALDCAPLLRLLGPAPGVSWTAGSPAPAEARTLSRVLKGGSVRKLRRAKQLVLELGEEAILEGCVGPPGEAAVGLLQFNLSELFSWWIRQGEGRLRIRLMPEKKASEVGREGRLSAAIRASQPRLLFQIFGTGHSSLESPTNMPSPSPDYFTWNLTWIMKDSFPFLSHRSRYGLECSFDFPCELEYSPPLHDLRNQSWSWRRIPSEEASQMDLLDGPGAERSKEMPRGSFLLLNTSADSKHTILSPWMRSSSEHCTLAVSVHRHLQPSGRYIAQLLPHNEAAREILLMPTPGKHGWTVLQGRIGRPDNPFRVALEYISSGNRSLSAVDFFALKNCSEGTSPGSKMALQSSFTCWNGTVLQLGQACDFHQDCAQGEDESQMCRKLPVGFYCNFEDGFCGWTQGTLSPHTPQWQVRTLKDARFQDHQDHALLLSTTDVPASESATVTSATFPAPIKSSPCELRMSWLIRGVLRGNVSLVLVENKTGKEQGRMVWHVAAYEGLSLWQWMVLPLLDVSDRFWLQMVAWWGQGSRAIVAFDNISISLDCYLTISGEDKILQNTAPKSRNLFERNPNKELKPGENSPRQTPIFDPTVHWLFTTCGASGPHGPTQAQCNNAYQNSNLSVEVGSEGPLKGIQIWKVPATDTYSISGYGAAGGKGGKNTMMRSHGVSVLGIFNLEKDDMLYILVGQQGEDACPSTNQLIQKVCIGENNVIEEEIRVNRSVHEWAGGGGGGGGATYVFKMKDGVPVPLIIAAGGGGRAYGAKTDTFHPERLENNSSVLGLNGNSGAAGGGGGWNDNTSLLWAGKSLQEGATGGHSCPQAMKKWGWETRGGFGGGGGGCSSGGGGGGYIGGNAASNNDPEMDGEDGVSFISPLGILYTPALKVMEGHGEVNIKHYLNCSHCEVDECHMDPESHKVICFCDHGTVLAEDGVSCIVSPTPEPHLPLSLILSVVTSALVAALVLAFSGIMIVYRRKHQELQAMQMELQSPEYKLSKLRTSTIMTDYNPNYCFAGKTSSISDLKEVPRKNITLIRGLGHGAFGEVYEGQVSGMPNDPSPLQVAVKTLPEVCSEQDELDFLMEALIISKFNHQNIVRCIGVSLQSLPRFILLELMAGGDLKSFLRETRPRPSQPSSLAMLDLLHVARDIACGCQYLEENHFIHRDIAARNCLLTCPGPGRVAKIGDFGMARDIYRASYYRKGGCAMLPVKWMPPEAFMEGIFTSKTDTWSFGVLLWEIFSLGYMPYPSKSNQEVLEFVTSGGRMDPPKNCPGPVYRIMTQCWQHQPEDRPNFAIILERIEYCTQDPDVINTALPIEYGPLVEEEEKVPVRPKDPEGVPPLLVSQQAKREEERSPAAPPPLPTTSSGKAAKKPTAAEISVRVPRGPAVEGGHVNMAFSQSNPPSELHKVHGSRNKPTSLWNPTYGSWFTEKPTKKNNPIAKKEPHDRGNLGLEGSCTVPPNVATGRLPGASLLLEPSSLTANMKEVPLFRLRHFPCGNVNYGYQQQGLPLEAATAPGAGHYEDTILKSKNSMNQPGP
T3 sequence (P07949 29-1114): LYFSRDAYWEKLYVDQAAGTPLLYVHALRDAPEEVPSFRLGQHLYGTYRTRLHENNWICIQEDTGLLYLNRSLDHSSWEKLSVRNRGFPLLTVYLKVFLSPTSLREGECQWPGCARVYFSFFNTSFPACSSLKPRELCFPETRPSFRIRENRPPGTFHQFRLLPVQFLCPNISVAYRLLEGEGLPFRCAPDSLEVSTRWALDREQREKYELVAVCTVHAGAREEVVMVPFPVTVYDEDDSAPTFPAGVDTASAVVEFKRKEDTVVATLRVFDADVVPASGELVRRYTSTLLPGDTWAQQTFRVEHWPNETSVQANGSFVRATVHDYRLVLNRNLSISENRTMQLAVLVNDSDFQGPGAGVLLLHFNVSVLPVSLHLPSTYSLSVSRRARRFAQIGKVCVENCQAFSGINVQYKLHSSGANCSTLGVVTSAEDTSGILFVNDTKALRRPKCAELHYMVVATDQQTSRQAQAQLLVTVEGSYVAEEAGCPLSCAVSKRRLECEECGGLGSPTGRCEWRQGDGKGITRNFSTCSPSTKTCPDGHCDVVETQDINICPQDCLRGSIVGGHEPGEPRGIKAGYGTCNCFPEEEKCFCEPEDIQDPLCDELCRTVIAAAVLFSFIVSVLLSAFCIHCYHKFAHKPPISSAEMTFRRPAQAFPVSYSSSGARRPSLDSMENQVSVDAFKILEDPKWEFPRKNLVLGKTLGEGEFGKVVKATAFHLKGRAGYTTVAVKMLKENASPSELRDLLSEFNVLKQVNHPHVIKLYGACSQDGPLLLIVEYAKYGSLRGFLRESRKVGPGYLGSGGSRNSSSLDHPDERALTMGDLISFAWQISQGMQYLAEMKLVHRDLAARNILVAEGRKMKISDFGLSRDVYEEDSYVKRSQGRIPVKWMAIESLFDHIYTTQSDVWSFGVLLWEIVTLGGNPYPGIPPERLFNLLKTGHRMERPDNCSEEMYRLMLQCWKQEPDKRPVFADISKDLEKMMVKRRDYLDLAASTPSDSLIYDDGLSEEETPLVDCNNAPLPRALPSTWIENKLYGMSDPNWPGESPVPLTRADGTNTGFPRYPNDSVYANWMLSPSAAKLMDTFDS

`CCOC(=O)c1c[nH]c2c(=O)[nH]c3ccccc3c12` [Compound 1, 4-Oxo-4,5-dihydro-3H-pyrrolo[2,3-c]quinoline-1-ethyl carboxylate] came in with an IC50 in test [1] of 10 to 100 µM. Further, the inhibition at 20 µM in test [2] stood at 92%; in [3], 99%.
For `CCOC(=O)c1c[nH]c2c(=O)[nH]c3ccc(S(=O)(=O)Nc4ccc(F)cc4)cc3c12` [Compound 12, 8-(4-Fluorophenylsulfamoyl)-4-oxo-4,5-dihydro-3H-pyrrolo[2,3-c]quinoline-1-ethyl carboxylate], the IC50 is 0.1 to 1 µM in test [4] and 1 to 10 µM in test [5].
Turning to `CCOC(=O)c1c[nH]c2c(=O)[nH]c3ccc(-c4cccc(S(C)(=O)=O)c4)cc3c12` [Compound 238, 8-(3-Methanesulfonyl-phenyl)-4-oxo-4,5-dihydro-3H-pyrrolo[2,3-c]quinoline-1-ethyl carboxylate], the “% inhibition at 1 μMol” value in test [6] is on record as 21%. Also, the concentration for half-maximal inhibition (IC50) was determined as 7 µM in test [7]; 33 µM in test [8]; 36 µM in [9]; 31 µM in [10]; 49 µM in test [11].
